Measured values from patent US20230226040A1, “COMBINATION THERAPY COMPRISING AN FGFR INHIBITOR AND A KRAS INHIBITOR” (Incyte Corporation, priority 2021, published 2023).

Tests used:
Type in all cases: cell-based
SW-1573 = assay: 5-day Cell Titer Glo combination matrix, Bliss score; settings: SW-1573 (Lung, Mesenchymal), 5 days
Method: (§2) Cells were seeded in RPMI medium with 10% HI FBS at a density of 500 cells/well in Greiner, white, clear bottom, 384-well tissue culture treated plates containing 10×10 combination matrices of compound. Plates were incubated at 37° C., 5% CO2 for 5 days. On day 5, Cell Titer Glo reagent was added to the plates and ATP luminescence was detected using a Pherastar FSX reader. The synergy score for the combination effect was calculated using a Bliss score model where the Bliss score=Yab-(Ya+Yb−(YaYb))×100, where Ya and Yb are the monotherapies. Bliss scores >20 are strongly synergistic and a higher Bliss scores indicates a higher level of synergism.
(§3) Cells were seeded in RPMI medium with 10% HI FBS at a density of 500 cells/well in Greiner, white, clear bottom, 384-well tissue culture treated plates containing 10×10 combination matrices of compound. Plates were incubated at 37° C., 5% CO2 for 5 days. On day 5, Cell Titer Glo reagent was added to the plates and ATP luminescence was detected using a Pherastar FSX reader. Synergy score for the combination effect is calculated using a Bliss score model where the Bliss score=Yab−(Ya+Yb−(YaYb))×100, where Ya and Yb are the monotherapies. Bliss scores >20 are strongly synergistic and a higher Bliss scores indicates a higher level of synergism.
(§4) Cells were seeded in RPMI medium with 10% HI FBS at a density of 500 cells/well in Greiner, white, clear bottom, 384-well tissue culture treated plates containing 10×10 combination matrices of compound. Plates were incubated at 37° C., 5% CO2 for 5 days. On day 5, Cell Titer Glo reagent was added to the plates and ATP luminescence was detected using a Pherastar FSX reader. The synergy score for the combination effect was calculated using a Bliss score model where the Bliss score=Yab−(Ya+Yb−(YaYb))×100, where Ya and Yb are the monotherapies. Bliss scores >20 are strongly synergistic and a higher Bliss scores indicates a higher level of synergism.

LU-99 = assay: as above; settings: LU-99 (Lung, Mesenchymal); FGFR inhibitor in combination with Cmpd 3; 5 days
Method: as §3, §4

H1792 = assay: as above; settings: H1792 (Lung, Mesenchymal), 5 days
Method: as §2, §3, §4

H358 = assay: as above; settings: H358 (Lung, Epithelial), 5 days
Method: as §2, §3, §4

A427 cells = assay: siRNA FGFR knockdown plus KRAS G12D inhibitor, Cell Titer Glo proliferation; settings: FGFR1 isoform knocked down; 120 h
Method: To further evaluate the KRAS/FGFR combination mechanism of action, siRNA FGFR knockdown experiments were conducted in A427 cells, followed by treatment with KRAS G12D inhibitors Compound 5, Compound 6, and Compound 7. Knockdown efficiency was assessed by Western blot (FIG. 13A) and its effect was measured by cell proliferation inhibition (FIGS. 13B-G). Initially, the effect of single FGFR isoforms knockdown in combination with KRAS G12D inhibitors Compound 5 (FIG. 13B), Compound 6 (FIG. 13D) and Compound 7 (FIG. 13F) was assessed. […] In addition, combining FGFR1 knockdown with knockdown of additional FGFR isoforms further increased the effect of KRAS G12D inhibitors (FIGS. 13C, E and G)
(§1) The lyophilized siRNA pools or individuals (Dharmacon ON-TARGET plus siRNA from Horizon Discovery) were reconstituted by combining 1× siRNA buffer (200 μL) with lyophilized siRNA (20 nmol); or combining lx siRNA buffer (100 μL) with lyophilized siRNA (10 nmol). Dharmafect Reagent 1 was prepared at a 1:200 dilution in 1× siRNA buffer. One tube of diluted reagent was prepared for each siRNA dilution. To each tube, the appropriate siRNA was added to Dharmafect Reagent 1 at a 1:400 dilution. The prepared siRNA reagent (25 μL per well) was added to the appropriate number of wells on a 96-well clear bottom Greiner plate and incubated at room temperature for 30 min.
For plating in 96-well pates, 2000 A427 cells per well in 100 !IL of medium were prepared. The prepared cells (100 !IL per well) were added to each well of the 96-well plate and incubated at 48 h.
Compound plates were prepared with a compound starting concentration of 5 mM in a 3-fold dilution. Following 48 h transfection incubation, the appropriate compounds were added to the 96-well plate at a final starting concentration of 5μM in 3-fold dilution (11 point dose response curve). After addition of the compounds, the 96-well plates were incubated at 37° C. for 120 h. […] The plates were tapped gently and luminescence was read on a Pherastar microplate reader.

SW-837 = assay: 5-day Cell Titer Glo combination matrix, Bliss score; settings: SW-837 (CRC, Epithelial); KRAS inhibitor in combination with pemigatinib; 5 days
Method: as §2, §4

HCC-44 = assay: as above; settings: HCC-44 (Lung, Mesenchymal); KRAS inhibitor in combination with pemigatinib; 5 days
Method: as §2, §4

Calu-1 = assay: as above; settings: Calu-1 (Lung, Mesenchymal); KRAS inhibitor in combination with pemigatinib; 5 days
Method: as §2

LU99 cells = assay: siRNA FGFR knockdown plus KRAS G12C inhibitor, Cell Titer Glo proliferation; settings: in the absence of FGFR1 or FGFR4; 120 h
Method: Knockdown efficiency was assessed by Western blot and its effect was measured by cell proliferation inhibition.
as §1, with “combining 1×” for “combining lx”, “in 1X” for “in 1×”, “([…]” for “(25 μL”
For plating in 96-well pates, 2000 LU99 cells per well in 100 μL of medium were prepared. The prepared cells (100 μL per well) were added to each well of the 96-well plate and incubated at 48 h.
Compound plates were prepared with a compound starting concentration of 5 mM in a 3-fold dilution. Following 48 h transfection incubation, the appropriate compounds were added to the 96-well plate at a final starting concentration of 5 μM in 3-fold dilution (11 point dose response curve). After addition of the compounds, the 96-well plates were incubated at 37° C. for 120 h. After this time, Cell Titer Glo reagent is reconstituted and 100 μL of reagent was added per well. The plates were tapped gently and luminescence was read on a Pherastar microplate reader.

[1] = FGFR inhibitor in combination with Cmpd 3
[2] = KRAS inhibitor in combination with pemigatinib

Structure (SMILES)	Avg. Bliss Score (SW-1573; [1])	Avg. Bliss Score (LU-99)	Avg. Bliss Score (H1792; [1])	Avg. Bliss Score (H358; [1])	inhibition of A427 cell proliferation after siRNA knockdown (A427 cells)	further results
COc1cc(OC)cc(N(CCNC(C)C)c2ccc3ncc(-c4cnn(C)c4)nc3c2)c1 [Erdafitinib]	7.9	34.7	12.9	4.4		
CC(=O)N1CCC[C@@H]1c1cc2c(O[C@@H](C)[C@@H]3CCCN3C)nc3c(F)c(-c4cccc5c4C(C#N)CCC5)c(C)cc3c2n1[C@H]1[C@H]2CN[C@@H]1C2 (stereo partly shown) [Compound 6]					higher inhibition in proliferation compared to controls	
C=CC(=O)N1CC[C@H](n2nc(C#Cc3cc(OC)cc(OC)c3)c3c(N)ncnc32)C1 [TAS-120]	6.6	22	17.4	3.3		
CCN1CCN(c2ccc(Nc3cc(N(C)C(=O)Nc4c(Cl)c(OC)cc(OC)c4Cl)ncn3)cc2)CC1 [BGJ398]	7.5	31.9	11.2	−0.8		
C=CC(=O)N1CC[C@H](n2ncc3c(N4CC(N(C)C)C4)nc4c(F)c(-c5c(C)c(Cl)cc6[nH]ncc56)c(Cl)cc4c32)C[C@H]1CC#N [Compound 4, 2-((2S,4S)-1-acryloyl-4-(8-chloro-7-(6-chloro-5-methyl-1H-indazol-4-yl)-4-(3-(dimethylamino)azetidin-1-yl)-6-fluoro-1H-pyrazolo[4,3-c]quinolin-1-yl)piperidin-2-yl)acetonitrile]						Avg. Bliss Score (SW-1573; [2]): 17; Avg. Bliss Score (H1792; [2]): 30; Avg. Bliss Score (H358; [2]): −3; Avg. Bliss Score (SW-837): −11.7; Avg. Bliss Score (HCC-44): 4.7; Avg. Bliss Score (Calu-1): −9.9
Cc1cc2c(-n3cncn3)nc3c(F)c(-c4cc(O)cc5ccc(F)cc45)c(CCC#N)cc3c2n1[C@H]1[C@H]2CN[C@@H]1C2 [Compound 5, 3-(1-((1R,4R,5S)-2-Azabicyclo[2.1.1]hexan-5-yl)-6-fluoro-7-(7-fluoro-3-hydroxynaphthalen-1-yl)-2-methyl-4-(1H-1,2,4-triazol-1-yl)-1H-pyrrolo[3,2-c]quinolin-8-yl)propanenitrile]					higher inhibition in proliferation compared to controls	
CCOc1nc2c(F)c(-c3cc(O)cc4ccccc34)c(CCC#N)cc2c2c1cc(CN1CCN(CC)CC1=O)n2[C@H]1[C@H]2CN[C@@H]1C2 [Compound 7]					higher inhibition in proliferation compared to controls	
CN(C)C1(C)CN(c2nc3c(F)c(-c4ccc(F)c5cccnc45)c(C(F)(F)F)cc3c3c2nnn3[C@H]2CCN(C(=O)/C=C/CF)[C@H](CC#N)C2)C1 [Compound 3, 2-((2S,4S)-4-(4-(3-(dimethylamino)-3-methylazetidin-1-yl)-6-fluoro-7-(5-fluoroquinolin-8-yl)-8-(trifluoromethyl)-1H-[1,2,3]triazolo[4,5-c]quinolin-1-yl)-1-((E)-4-fluorobutenoyl)piperidin-2-yl)acetonitrile]						inhibition of LU99 cell proliferation after siRNA knockdown (LU99 cells): higher inhibition in proliferation; Avg. Bliss Score (SW-1573; [2]): 18.6; Avg. Bliss Score (H1792; [2]): 28.5; Avg. Bliss Score (H358; [2]): 3.8; Avg. Bliss Score (SW-837): 0.9; Avg. Bliss Score (HCC-44): 5.8; Avg. Bliss Score (Calu-1): 8.7
